{"source": "ChEMBL document CHEMBL1932918", "about": "“AChE inhibitor: a regio- and stereo-selective 1,3-dipolar cycloaddition for the synthesis of novel substituted 5,6-dimethoxy spiro[5.3']-oxindole-spiro-[6.3″]-2,3-dihydro-1H-inden-1″-one-7-(substituted aryl)-tetrahydro-1H-pyrrolo[1,2-c][1,3]thiazole” (Bioorg Med Chem Lett, 2012)", "data": [{"target": "Acetylcholinesterase (Electrophorus electricus, UniProt O42275)", "sequence (O42275 whole entry)": "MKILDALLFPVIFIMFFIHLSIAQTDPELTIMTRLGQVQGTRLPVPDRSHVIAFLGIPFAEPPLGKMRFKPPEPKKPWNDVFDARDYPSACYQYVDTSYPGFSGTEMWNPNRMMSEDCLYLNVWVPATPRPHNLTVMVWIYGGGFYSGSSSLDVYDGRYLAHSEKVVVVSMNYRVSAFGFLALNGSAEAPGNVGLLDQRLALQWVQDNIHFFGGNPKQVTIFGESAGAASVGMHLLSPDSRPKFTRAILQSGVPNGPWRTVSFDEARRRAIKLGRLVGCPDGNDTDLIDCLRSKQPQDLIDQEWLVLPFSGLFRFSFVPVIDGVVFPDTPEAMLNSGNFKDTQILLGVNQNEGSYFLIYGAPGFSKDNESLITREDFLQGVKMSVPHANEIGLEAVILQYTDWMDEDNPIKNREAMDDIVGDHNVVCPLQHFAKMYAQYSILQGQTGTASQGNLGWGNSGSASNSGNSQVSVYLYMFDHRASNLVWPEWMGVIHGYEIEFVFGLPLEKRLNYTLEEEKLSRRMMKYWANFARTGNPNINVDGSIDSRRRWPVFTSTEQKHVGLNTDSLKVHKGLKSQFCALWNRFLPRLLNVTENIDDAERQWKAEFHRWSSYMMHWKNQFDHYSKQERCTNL", "experiment": "Inhibition of electric eel AChE using […] measured every sec for 2 mins by Ellman's method", "units": {"IC50": "nM"}, "values": [{"smiles": "COc1cc2c(cc1OC)C(=O)C1(C2)C(c2ccncc2)C2CSCN2C12C(=O)Nc1ccccc12", "note": "(stereo not given)", "IC50": 480}, {"smiles": "COc1cc2c(cc1OC)C(=O)C1(C2)C(c2ccc(F)cc2)C2CSCN2C12C(=O)Nc1ccccc12", "note": "(stereo not given)", "IC50": 1120}, {"smiles": "COc1ccc(C2C3CSCN3C3(C(=O)Nc4ccccc43)C23Cc2cc(OC)c(OC)cc2C3=O)cc1OC", "note": "(stereo not given)", "IC50": 6200}, {"smiles": "COc1cc2c(cc1OC)C(=O)C1(C2)C(c2ccccc2Cl)C2CSCN2C12C(=O)Nc1ccccc12", "note": "(stereo not given)", "IC50": 8320}, {"smiles": "COc1cc2c(cc1OC)C(=O)C1(C2)C(c2ccccc2)C2CSCN2C12C(=O)Nc1ccccc12", "note": "(stereo not given)", "IC50": 5800}, {"smiles": "COc1cc2c(cc1OC)C(=O)C1(C2)C(c2ccncc2)C2CSCN2C12C(=O)Nc1ccc(Cl)cc12", "note": "(stereo not given)", "IC50": 340}, {"smiles": "COc1cc2c(cc1OC)C(=O)C1(C2)C(c2ccc(F)cc2)C2CSCN2C12C(=O)Nc1ccc(Cl)cc12", "note": "(stereo not given)", "IC50": 1560}, {"smiles": "COc1ccc(C2C3CSCN3C3(C(=O)Nc4ccc(Cl)cc43)C23Cc2cc(OC)c(OC)cc2C3=O)cc1OC", "note": "(stereo not given)", "IC50": 2240}, {"smiles": "COc1cc2c(cc1OC)C(=O)C1(C2)C(c2ccccc2Cl)C2CSCN2C12C(=O)Nc1ccc(Cl)cc12", "note": "(stereo not given)", "IC50": 3280}, {"smiles": "COc1cc2c(cc1OC)C(=O)C1(C2)C(c2ccccc2)C2CSCN2C12C(=O)Nc1ccc(Cl)cc12", "note": "(stereo not given)", "IC50": 2600}, {"smiles": "COc1cc2c(cc1OC)C(=O)C1(C2)C(c2ccncc2)C2CSCN2C12C(=O)Nc1ccc([N+](=O)[O-])cc12", "note": "(stereo not given)", "IC50": 110}, {"smiles": "COc1cc2c(cc1OC)C(=O)C1(C2)C(c2ccc(F)cc2)C2CSCN2C12C(=O)Nc1ccc([N+](=O)[O-])cc12", "note": "(stereo not given)", "IC50": 1160}, {"smiles": "COc1ccc(C2C3CSCN3C3(C(=O)Nc4ccc([N+](=O)[O-])cc43)C23Cc2cc(OC)c(OC)cc2C3=O)cc1OC", "note": "(stereo not given)", "IC50": 2100}, {"smiles": "COc1cc2c(cc1OC)C(=O)C1(C2)C(c2ccccc2Cl)C2CSCN2C12C(=O)Nc1ccc([N+](=O)[O-])cc12", "note": "(stereo not given)", "IC50": 2120}, {"smiles": "COc1cc2c(cc1OC)C(=O)C1(C2)C(c2ccccc2)C2CSCN2C12C(=O)Nc1ccc([N+](=O)[O-])cc12", "note": "(stereo not given)", "IC50": 3160}]}]}
